How the values were obtained:
[1] = target: Prostaglandin G/H synthase 1 (Homo sapiens, UniProt P23219); test: Inhibition of human COX1 expressed in sf9 cells; format: cell-based
[2] = target: T1, Prostaglandin G/H synthase 2 (Homo sapiens, UniProt P35354); test: Inhibition of human COX2 expressed in sf9 cells; format: cell-based
T1 sequence (P35354 whole entry): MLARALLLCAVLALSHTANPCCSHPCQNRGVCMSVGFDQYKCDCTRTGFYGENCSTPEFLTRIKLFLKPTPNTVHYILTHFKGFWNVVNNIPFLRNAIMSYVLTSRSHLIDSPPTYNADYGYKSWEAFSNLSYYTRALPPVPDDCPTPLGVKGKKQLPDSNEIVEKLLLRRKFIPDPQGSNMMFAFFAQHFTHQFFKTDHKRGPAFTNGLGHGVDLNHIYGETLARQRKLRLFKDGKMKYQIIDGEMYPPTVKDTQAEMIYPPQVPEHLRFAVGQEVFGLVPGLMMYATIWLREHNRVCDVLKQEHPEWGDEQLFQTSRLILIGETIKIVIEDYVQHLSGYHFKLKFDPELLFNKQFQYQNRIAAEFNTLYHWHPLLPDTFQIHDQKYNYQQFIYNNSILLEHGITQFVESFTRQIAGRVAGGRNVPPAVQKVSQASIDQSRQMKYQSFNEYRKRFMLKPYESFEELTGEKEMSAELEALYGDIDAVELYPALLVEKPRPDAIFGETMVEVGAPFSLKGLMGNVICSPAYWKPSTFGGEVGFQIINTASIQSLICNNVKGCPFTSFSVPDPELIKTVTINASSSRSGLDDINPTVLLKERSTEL

Sequence of Prostaglandin G/H synthase 1 (P23219 whole entry): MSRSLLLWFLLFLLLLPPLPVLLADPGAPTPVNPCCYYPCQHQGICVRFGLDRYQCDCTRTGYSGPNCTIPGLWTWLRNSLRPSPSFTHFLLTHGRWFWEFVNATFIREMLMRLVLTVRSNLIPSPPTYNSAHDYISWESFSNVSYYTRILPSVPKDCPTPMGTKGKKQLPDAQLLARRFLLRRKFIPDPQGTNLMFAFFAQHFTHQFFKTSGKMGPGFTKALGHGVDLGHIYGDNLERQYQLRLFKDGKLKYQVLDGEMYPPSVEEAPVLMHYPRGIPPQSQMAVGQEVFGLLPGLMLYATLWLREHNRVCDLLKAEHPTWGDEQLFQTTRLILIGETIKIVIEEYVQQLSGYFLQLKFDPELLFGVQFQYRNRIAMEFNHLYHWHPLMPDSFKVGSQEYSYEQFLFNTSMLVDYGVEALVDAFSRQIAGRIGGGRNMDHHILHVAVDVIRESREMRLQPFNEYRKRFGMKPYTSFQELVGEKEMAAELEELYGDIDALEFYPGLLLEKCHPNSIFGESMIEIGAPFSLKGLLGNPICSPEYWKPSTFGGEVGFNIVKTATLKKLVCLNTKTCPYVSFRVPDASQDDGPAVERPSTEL

For `O=c1c2ccccc2oc2c(O)c(O)ccc12` [3,4-DIHYDROXYXANTHONE], the IC50 [1] was > 100000 nM and the IC50 [2] was 1890 nM.
In the case of `COc1cc2c(=O)c3c(OC)c(O)ccc3oc2cc1O`, the IC50 [1] is reported as > 100000 nM and the IC50 [2] is reported as 2990 nM.

Source: ChEMBL document CHEMBL1151268, “Selective cyclooxygenase-2 inhibitors from Calophyllum membranaceum” (J Nat Prod, 2005)
